Measured values as given in patent US20080009418A1, “Selective Inhibitors” (Alchemia LTD., priority 2004, published 2008).

Assays:
Details in all cases: compound at 10 μM
Human melanocortin (MC5) = biological target: T1, Human melanocortin (MC5) (Homo sapiens, UniProt P33032); assay: Radioligand binding, human melanocortin MC5 membranes, FlashPlate, [125I]-NDP-αMSH
T1 construct: purchased Perkin Elmer Biosignal
Procedure, shortened: (§1)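 Cloned human receptor membranes were coated onto FlashPlate wells and incubated with radioligand and compound (added from a 0.5 mM DMSO daughter plate) for 1 hour at room temperature in the dark. Scintillation counting gave percent inhibition, with DMSO defining total and reference ligand defining non-specific binding.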

Human δ-opioid (DOP) = biological target: T2, Human δ-opioid (DOP) (Homo sapiens, UniProt P41143); assay: Radioligand binding, human δ-opioid (DOP) membranes, FlashPlate, [3H]-Bremazocine
T2 construct: purchased Perkin Elmer Biosignal
Procedure, shortened: as §1

[1] = biological target: T3, Human neuropeptide Y (NPY-Y1) (Homo sapiens, UniProt P25929); assay: Radioligand binding, human neuropeptide Y NPY-Y1 membranes, FlashPlate, [125I]-PYY
T3 construct: purchased Perkin Elmer Biosignal
T3 sequence (P25929 1-384): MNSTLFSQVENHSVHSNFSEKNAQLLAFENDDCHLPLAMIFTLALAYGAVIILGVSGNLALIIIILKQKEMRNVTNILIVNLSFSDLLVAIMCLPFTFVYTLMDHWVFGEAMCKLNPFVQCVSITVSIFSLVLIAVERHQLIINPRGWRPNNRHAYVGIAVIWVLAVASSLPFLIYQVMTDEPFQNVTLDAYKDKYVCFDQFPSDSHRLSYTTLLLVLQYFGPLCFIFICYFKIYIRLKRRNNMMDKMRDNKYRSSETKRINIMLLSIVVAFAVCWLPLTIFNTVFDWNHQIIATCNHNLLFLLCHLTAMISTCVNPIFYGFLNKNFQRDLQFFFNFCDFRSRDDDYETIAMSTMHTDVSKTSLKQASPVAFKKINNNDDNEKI
Procedure, shortened: as §1

Human κ-Opioid (KOP) = biological target: T4, Human κ-Opioid (KOP) (Homo sapiens, UniProt P41145); assay: Radioligand binding, human κ-opioid (KOP) membranes, filtration, [3H]-Diprenorphine
T4 construct: purchased Perkin Elmer Biosignal
Procedure, shortened: (§2)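 Percent inhibition of radioligand binding measured on recombinant human membranes: NK1 with [125I]-Substance P, KOP with [3H]-Diprenorphine. Incubation 1 h at room temperature, then harvest onto 0.3% PEI-soaked filters, cold Tris-HCl pH 7.4 washes and scintillation counting; non-specific binding from reference ligand wells.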

Mouse urotensin (mUR2) = biological target: T5, Mouse urotensin (mUR2) (Mus musculus, UniProt Q8VIH9); assay: Radioligand binding, mouse urotensin mUR2 membranes, FlashPlate, [125I]-Urotensin II
T5 construct: purchased Perkin Elmer Biosignal
T5 sequence (Q8VIH9 1-385): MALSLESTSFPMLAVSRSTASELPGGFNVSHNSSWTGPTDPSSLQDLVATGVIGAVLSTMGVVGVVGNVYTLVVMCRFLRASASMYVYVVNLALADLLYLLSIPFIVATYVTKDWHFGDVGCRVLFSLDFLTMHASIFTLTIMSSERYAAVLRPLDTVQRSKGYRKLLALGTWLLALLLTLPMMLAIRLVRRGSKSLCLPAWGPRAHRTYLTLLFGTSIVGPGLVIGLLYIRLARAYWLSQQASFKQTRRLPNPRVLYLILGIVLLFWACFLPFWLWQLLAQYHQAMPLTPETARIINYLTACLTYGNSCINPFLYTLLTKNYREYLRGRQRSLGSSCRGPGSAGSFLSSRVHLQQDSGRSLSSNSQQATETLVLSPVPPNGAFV
Procedure, shortened: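 Cloned mouse urotensin (mUR2) receptor membranes from Perkin Elmer Biosignal were immobilized in FlashPlate microplates using a proprietary coating. Each well got 19.5 μl buffer, then 0.5 μl of DMSO, reference ligand, or compound. Adding 5 μl of [125I]-Urotensin II, diluted to 5× final concentration in binding buffer, started binding. Plates were sealed with TopSeal-A and incubated 1 hour at room temperature in the dark. Wells were counted for 30 seconds each on a TopCount after a 60-second delay, and percentage inhibition was calculated.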

Human Melanocortin (MC4) = biological target: T6, Human Melanocortin (MC4) (Homo sapiens, UniProt P32245); assay: Radioligand binding, human melanocortin MC4 membranes, FlashPlate, [125I]-NDP-αMSH
T6 construct: purchased Perkin Elmer Biosignal
Procedure, shortened: as §1

[2] = biological target: T7, Human melanin-concentrating hormone (MCH1) (Homo sapiens, UniProt Q99705); assay: Radioligand binding, human melanin-concentrating hormone MCH1 membranes, FlashPlate, [125I]-S36057
T7 construct: purchased Perkin Elmer Biosignal
Procedure, shortened: as §1

Human Melanocortin (MC3) = biological target: T8, Human Melanocortin (MC3) (Homo sapiens, UniProt P41968); assay: Radioligand binding, human melanocortin MC3 membranes, FlashPlate, [125I]-NDP-αMSH
T8 construct: purchased Perkin Elmer Biosignal
Procedure, shortened: as §1

Human neurokinin (NK1) = biological target: T9, Human neurokinin (NK1) (Homo sapiens, UniProt P25103); assay: Radioligand binding, human neurokinin NK1 membranes, filtration, [125I]-Substance P
T9 construct: purchased Perkin Elmer Biosignal
Procedure, shortened: as §2

Human μ-opioid (MOP) = biological target: T10, Human μ-opioid (MOP) (Homo sapiens, UniProt P35372); assay: Radioligand binding, human μ-opioid (MOP) membranes, FlashPlate, [3H]-Naloxone
T10 construct: purchased Perkin Elmer Biosignal
Procedure, shortened: as §1

Human opioid (ORL1) = biological target: T11, Human opioid (ORL1) (Homo sapiens, UniProt P41146); assay: Radioligand binding, human opioid ORL1 membranes, FlashPlate, [125I]-Nociceptin
T11 construct: purchased Perkin Elmer Biosignal
Procedure, shortened: as §1

T9 sequence (P25103 whole entry): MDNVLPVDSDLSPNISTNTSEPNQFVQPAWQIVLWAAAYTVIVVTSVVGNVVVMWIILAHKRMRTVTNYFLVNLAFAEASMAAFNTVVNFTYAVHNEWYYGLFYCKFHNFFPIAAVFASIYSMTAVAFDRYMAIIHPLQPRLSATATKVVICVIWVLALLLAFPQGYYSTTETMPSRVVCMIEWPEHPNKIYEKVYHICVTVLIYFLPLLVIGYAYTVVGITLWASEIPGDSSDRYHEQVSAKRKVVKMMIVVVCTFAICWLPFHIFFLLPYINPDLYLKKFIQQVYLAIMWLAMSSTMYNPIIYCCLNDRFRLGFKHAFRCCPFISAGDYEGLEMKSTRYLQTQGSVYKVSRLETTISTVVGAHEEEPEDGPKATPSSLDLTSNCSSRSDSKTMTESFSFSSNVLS
T10 sequence (P35372 whole entry): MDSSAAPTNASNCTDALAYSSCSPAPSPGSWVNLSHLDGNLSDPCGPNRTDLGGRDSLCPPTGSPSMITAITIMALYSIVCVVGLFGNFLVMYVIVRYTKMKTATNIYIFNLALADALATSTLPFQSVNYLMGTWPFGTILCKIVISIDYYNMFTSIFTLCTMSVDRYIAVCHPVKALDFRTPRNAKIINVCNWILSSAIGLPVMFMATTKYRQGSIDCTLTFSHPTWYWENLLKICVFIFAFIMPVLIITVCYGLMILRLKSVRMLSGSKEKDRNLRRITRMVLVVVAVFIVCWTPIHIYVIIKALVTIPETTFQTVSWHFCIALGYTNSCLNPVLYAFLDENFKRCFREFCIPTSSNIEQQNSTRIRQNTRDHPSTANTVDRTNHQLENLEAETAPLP
T6 sequence (P32245 whole entry): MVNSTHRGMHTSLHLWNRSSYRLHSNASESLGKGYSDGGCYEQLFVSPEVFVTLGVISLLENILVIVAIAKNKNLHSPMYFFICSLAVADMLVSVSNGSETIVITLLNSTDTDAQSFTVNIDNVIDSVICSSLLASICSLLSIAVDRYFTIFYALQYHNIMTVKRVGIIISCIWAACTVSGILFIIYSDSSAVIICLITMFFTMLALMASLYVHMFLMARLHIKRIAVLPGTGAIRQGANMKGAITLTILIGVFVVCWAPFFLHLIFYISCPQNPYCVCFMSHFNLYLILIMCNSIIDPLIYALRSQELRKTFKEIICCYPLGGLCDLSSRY
T1 sequence (P33032 whole entry): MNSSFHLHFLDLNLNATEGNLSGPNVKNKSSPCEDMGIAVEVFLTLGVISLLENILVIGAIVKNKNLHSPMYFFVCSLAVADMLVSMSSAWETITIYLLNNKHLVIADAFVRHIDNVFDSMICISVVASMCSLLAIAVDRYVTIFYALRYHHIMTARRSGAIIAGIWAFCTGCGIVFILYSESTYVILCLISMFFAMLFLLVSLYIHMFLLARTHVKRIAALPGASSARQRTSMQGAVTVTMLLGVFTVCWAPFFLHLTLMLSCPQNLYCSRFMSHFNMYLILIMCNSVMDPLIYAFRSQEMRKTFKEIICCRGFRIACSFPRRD
T4 sequence (P41145 whole entry): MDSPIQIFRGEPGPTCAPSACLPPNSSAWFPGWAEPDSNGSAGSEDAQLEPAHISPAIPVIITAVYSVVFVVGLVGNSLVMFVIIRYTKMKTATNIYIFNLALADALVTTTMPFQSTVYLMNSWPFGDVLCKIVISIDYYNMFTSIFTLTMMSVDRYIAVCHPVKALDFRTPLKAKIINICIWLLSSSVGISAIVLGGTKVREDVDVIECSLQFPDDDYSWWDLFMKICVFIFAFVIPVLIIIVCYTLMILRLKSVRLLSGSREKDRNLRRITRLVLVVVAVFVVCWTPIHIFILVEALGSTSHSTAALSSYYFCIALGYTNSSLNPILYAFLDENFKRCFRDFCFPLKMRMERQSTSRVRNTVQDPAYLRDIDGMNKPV
T2 sequence (P41143 whole entry): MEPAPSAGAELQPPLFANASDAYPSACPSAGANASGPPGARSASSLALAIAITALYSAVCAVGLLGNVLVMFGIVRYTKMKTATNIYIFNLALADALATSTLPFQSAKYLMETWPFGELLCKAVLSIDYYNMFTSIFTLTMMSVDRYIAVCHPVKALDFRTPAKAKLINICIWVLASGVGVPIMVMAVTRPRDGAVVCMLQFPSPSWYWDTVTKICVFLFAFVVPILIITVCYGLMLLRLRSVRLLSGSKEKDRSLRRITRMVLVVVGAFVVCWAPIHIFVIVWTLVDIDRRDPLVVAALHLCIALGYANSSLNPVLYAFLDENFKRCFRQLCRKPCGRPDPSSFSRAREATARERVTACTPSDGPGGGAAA
T11 sequence (P41146 whole entry): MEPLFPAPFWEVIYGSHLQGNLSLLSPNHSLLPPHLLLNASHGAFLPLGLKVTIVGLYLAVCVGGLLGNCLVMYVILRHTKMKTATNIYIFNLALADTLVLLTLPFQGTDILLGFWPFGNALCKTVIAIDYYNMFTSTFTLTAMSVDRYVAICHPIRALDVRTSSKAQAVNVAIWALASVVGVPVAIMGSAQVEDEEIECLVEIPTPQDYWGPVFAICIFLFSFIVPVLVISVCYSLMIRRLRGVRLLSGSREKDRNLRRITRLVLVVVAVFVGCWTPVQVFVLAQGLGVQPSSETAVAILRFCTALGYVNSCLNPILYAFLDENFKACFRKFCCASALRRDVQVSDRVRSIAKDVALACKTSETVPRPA
T7 sequence (Q99705 whole entry): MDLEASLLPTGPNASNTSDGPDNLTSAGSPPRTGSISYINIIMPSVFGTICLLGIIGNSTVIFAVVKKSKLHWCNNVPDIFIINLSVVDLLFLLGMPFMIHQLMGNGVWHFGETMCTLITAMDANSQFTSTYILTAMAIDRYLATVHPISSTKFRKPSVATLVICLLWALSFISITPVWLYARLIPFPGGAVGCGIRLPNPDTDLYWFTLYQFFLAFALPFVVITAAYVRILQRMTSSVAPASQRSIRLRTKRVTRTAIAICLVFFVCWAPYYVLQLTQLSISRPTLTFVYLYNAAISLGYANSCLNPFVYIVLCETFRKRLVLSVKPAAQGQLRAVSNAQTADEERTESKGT
T8 sequence (P41968 whole entry): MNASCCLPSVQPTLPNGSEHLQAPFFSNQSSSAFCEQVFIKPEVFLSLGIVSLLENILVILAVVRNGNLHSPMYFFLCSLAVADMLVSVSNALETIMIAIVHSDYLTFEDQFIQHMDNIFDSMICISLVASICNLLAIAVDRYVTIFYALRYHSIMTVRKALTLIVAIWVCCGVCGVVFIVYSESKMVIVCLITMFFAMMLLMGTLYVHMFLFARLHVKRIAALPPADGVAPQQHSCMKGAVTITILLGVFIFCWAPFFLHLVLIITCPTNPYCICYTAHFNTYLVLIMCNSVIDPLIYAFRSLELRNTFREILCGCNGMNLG

For `CSC1O[C@H](COCc2ccccc2)[C@@H](O)[C@@H](OCc2ccc(-c3ccccc3)cc2)[C@H]1NC(=O)CCN` (stereo partly shown) [compound 285], the “A5: inhibition of radioligand binding, human melanocortin (MC5)” value (Human melanocortin (MC5); [125I]-NDP-αMSH) was “− (“−” indicates less than 50% inhibition at 10 μM)”, the “A1: inhibition of radioligand binding, human δ-opioid (DOP)” value (Human δ-opioid (DOP); [3H]-Bremazocine) was “− (“−” indicates less than 50% inhibition at 10 μM)” and the “A9: inhibition of radioligand binding, human neuropeptide Y (NPY-Y1)” value ([1]; [125I]-PYY) was “− (“−” indicates less than 50% inhibition at 10 μM)”. The “A2: inhibition of radioligand binding, human κ-opioid (KOP)” value (Human κ-Opioid (KOP); [3H]-Diprenorphine) was “− (“−” indicates less than 50% inhibition at 10 μM)”, the “A11: inhibition of radioligand binding, mouse urotensin (mUR2)” value (Mouse urotensin (mUR2); [125I]-Urotensin II) was “− (“−” indicates less than 50% inhibition at 10 μM)” and the “A4: inhibition of radioligand binding, human melanocortin (MC4)” value (Human Melanocortin (MC4); [125I]-NDP-αMSH) was “− (“−” indicates less than 50% inhibition at 10 μM)”. For the same molecule, the “A6: inhibition of radioligand binding, human melanin-concentrating hormone (MCH1)” value ([2]; [125I]-S36057) was “− (“−” indicates less than 50% inhibition at 10 μM)”, the “A3: inhibition of radioligand binding, human melanocortin (MC3)” value (Human Melanocortin (MC3); [125I]-NDP-αMSH) was “− (“−” indicates less than 50% inhibition at 10 μM)” and the “A8: inhibition of radioligand binding, human neurokinin (NK1)” value (Human neurokinin (NK1); [125I]-Substance P) was “+ (“+” indicates greater than 50% inhibition at 10 μM)”. The “A7: inhibition of radioligand binding, human μ-opioid (MOP)” value (Human μ-opioid (MOP); [3H]-Naloxone) was “− (“−” indicates less than 50% inhibition at 10 μM)” and the “A10: inhibition of radioligand binding, human opioid (ORL1)” value (Human opioid (ORL1); [125I]-Nociceptin) was “− (“−” indicates less than 50% inhibition at 10 μM)”.
In the case of `COC[C@H]1OC(OCCc2ccccc2)[C@H](NC(=O)CCCNC(=N)N)[C@@H](OCc2ccc(-c3ccccc3)cc2)[C@@H]1O` (stereo partly shown) [compound 43], the “A5 radioligand binding inhibition” value (Human melanocortin (MC5); human melanocortin MC5 membranes) was “+ (“+” indicates greater than 50% inhibition at 10 μM)”, the “A1 radioligand binding inhibition” value (Human δ-opioid (DOP); human δ-opioid (DOP) membranes) was “− (“−” indicates less than 50% inhibition at 10 μM)” and the “A9 radioligand binding inhibition” value ([1]; human NPY-Y1 membranes) was “− (“−” indicates less than 50% inhibition at 10 μM)”. The “A2 radioligand binding inhibition” value (Human κ-Opioid (KOP); human κ-opioid (KOP) membranes) was “+ (“+” indicates greater than 50% inhibition at 10 μM)”, the “A11 radioligand binding inhibition” value (Mouse urotensin (mUR2); mouse urotensin mUR2 membranes) was “− (“−” indicates less than 50% inhibition at 10 μM)” and the “A4 radioligand binding inhibition” value (Human Melanocortin (MC4); human melanocortin MC4 membranes) was “+ (“+” indicates greater than 50% inhibition at 10 μM)”. For the same molecule, the “A6 radioligand binding inhibition” value ([2]; human MCH1 membranes) was “+ (“+” indicates greater than 50% inhibition at 10 μM)”, the “A3 radioligand binding inhibition” value (Human Melanocortin (MC3); human melanocortin MC3 membranes) was “+ (“+” indicates greater than 50% inhibition at 10 μM)” and the “A8 radioligand binding inhibition” value (Human neurokinin (NK1); human neurokinin NK1 membranes) was “+ (“+” indicates greater than 50% inhibition at 10 μM)”. The “A7 radioligand binding inhibition” value (Human μ-opioid (MOP); human μ-opioid (MOP) membranes) was “+ (“+” indicates greater than 50% inhibition at 10 μM)” and the “A10 radioligand binding inhibition” value (Human opioid (ORL1); human ORL1 membranes) was “− (“−” indicates less than 50% inhibition at 10 μM)”.
